Experimental findings from publication PMC6152622, “Synthesis and Evaluation of Phenylxanthine Derivatives as Potential Dual A2AR Antagonists/MAO-B Inhibitors for Parkinson’s Disease” (Molecules : A Journal of Synthetic Chemistry and Natural …, 2017) are described below.

Like-named read-outs stand apart in the source and are kept apart here.

By melting point is commonly meant the temperature, or range, at which the solid turns liquid. A word on the Ki: it is the equilibrium dissociation constant of an inhibitor or competing ligand from its target. For orientation: Tmax means the time from dosing to the highest level. Usually AUC(0-t) stands for exposure summed from dosing to a finite time, without extrapolation to infinity. Read a low AUC(0-t) as less exposure. For orientation: Cmax means the highest concentration seen after dosing. By half-life is commonly meant the time in which the quantity being followed falls by half. Low values mean rapid decline, high ones slow decline.

One data set concerns the target T1, human A2AR (Homo sapiens, UniProt P29274).
T1 construct: expressed in transfected cells
Put plainly: Radioligand binding assay ([3H]ZM241385 competition) on membranes of HEK-293 cells transfected with human A2AR. Particulars: [3H]ZM241385 displacement; Ki converted from IC50 by Cheng-Prusoff; duplicate, mean ± SD; read-out: Ki hA2AR. On the procedure:
The binding affinity of test compounds was determined using radioligand binding assays. Human A2AR cDNA was stably transfected into HEK-293 cells. Membranes from the transfected cell were used in the interactive capacity of each compound toward the A2AR. Competition binding assay experiments by incubating membranes of 10 μg protein with 2 nM [3H]ZM241385 were carried out, with interval concentrations ranging from 0.1 nM to 100 μM of test compounds in 96-well filter plates at 4 °C for 90 min. After incubation experiments, free and bound radioligands were split by filtering and washing. Last, filter-bound radioactivity was counted after addition of 30 μL/well of scintillation solution. Nonspecific binding was measured in the presence of 100 μM ZM241385. The experiments were carried in duplicate. IC50 values were determined using a nonlinear regression curve fitting by the program GraphPad Prism. The affinities of compounds were calculated by Ki value which was from the IC50 values according as the Cheng−Prusoff equation [19].

For a further data set, the target named is T2, recombinant human MAO-B (Homo sapiens, UniProt P27338).
T2 construct: purchased Sigma-Aldrich Corporation
T2 sequence (P27338 1-520): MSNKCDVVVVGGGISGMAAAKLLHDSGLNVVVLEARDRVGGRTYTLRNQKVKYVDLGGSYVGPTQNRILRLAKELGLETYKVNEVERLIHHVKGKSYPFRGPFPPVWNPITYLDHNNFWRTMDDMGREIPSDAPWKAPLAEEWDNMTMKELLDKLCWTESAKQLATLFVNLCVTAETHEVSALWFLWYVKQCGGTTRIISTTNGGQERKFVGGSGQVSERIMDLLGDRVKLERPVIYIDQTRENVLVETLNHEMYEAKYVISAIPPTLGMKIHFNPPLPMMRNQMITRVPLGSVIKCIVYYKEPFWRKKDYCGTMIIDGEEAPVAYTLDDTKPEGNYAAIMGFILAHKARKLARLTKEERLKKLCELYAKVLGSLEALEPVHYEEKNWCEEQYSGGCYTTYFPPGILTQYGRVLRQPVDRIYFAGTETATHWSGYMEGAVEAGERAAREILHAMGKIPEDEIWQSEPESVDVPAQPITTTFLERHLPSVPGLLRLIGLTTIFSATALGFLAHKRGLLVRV
The data set can be described thus: MAO-B inhibition, MAO-Glo commercial kit. Type of data set: biochemical. Particulars: Ki converted from IC50 by Cheng-Prusoff; duplicate, mean ± SD; read-out: Ki hMAO-B. As to the method:
Inhibitory potency on MAO-B enzyme from recombinant human MAO-B were carried out by a fluorometric method with a commercial kit (Promega, MAO-Glo Assay). The MAO enzyme incubation experiments were carried with a MAO-B substrate, methyl (S)-2-(6-(2-aminoethoxy) benzo[d]thiazol-2-yl)-4,5-dihydrothiazole-4-carboxylate, which was converted to luciferin methyl ester. Then the “Luciferin Detection Reagent” was added to change the methyl ester derivative to luciferin, stop the MAO-B reaction, and simultaneously produce light. The intensity of light is directly in proportion to MAO-B activity. The assay was carried in a 96-well black opaque microplate in duplicate. The reaction mixture was composed of 12.5 μL of MAO-B substrate (a final concentration of 4 μM), 25 μL of human MAO-B (1 μg of protein/well), and 12.5 μL of test compounds for each well. After 1 h of incubation at 37 °C, each well added 50 μL of “Luciferin Detection Reagent”, and incubated an additional 20 min. the luminescent signal of microplate was measured by a luminometer. The signal from reaction of MAO-B enzyme and substrate without inhibitors accounted as the positive control, whereas the signal from reaction of MAO-B enzyme and inhibitors in the absence of substrate accounted as the negative control. Compound concentrations of 1 μM were tested at first. IC50 values (the half maximal inhibitory concentration) were performed from concentration–response curves, plotted by the GraphPad Prism software. All experiments were performed in duplicate, and data are expressed as mean ± SD.

Data set [1] in a line: Plasma pharmacokinetics after i.p. administration. Type of data set: in vivo, Sprague-Dawley rats. Particulars: 50 mg/kg, rats. An excerpt: (§1) Sprague-Dawley rats (200 ± 20 g) were obtained from the Laboratory Animal Center of Wenzhou Medical University (Wenzhou, China) to study the pharmacokinetics and tissue distribution studies (TDS) of PX-D-P6 and PX-E-P8 following intraperitoneal injection (i.p.) administration. The experiment procedures and protocols were approved the Animal Care and Use Committee of Wenzhou Medical College and complied with the Guide for the Care and Use of Laboratory Animals. The corresponding ethical approval code was WMU20161025.
(§2) The chosen compounds dissolved in suspension formulation (2 % Tween 80–saline) were administered to each rat at a dose of 50 mg/kg. Blood samples (0.3 mL) were collected from the caudal vein into 1.5 mL tapered plastic centrifuge tubes (pretreated with K2EDTA as an anticoagulant) at pre-dose, 0.08, 0.16, 0.25, 0.5, 1, 2, 4, 8, 12, 24 h after i.p. administration. Separately, blood and brain samples were collected at pre-dose and 1 h for TDS. Blood samples were immediately centrifuged at 3000 g for 10 min for isolation of the plasma. Brain samples were homogenized in phosphate buffer saline. 100 μL plasma or 200 μL brain sample was precipitated with addition of 400 μL acetonitrile and vortex mixed for 1 min and centrifuged at 10,000 g for 10 min. Finally, 2μL supernatant was injected into UPLC/MS system. Calibration standards samples were prepared with blank rat plasma or brain homogenates. Plasma pharmacokinetic parameters were analyzed by DAS (Drug and Statistics) software (Version 2, Wenzhou Medical University, Wenzhou, China).

Data set [2] can be described thus: Plasma and brain distribution at 1 h after i.p. administration. Type of data set: in vivo. To be noted: Sprague-Dawley, rat, ip, rats, 1 h after i.p. 50 mg/kg; for concentration at 1 h: n = 6.
Text: as §1, §2

The test system of data set [3] is haloperidol-induced catalepsy in rats. Put plainly: Haloperidol-induced catalepsy, bar test. Type of data set: in vivo. Particulars: i.p. As to the method: Catalepsy was measured using a thin metal bar test at 9.0 cm height. In this test, each rat was injected intraperitoneally by haloperidol (1.5 mg/kg). Before i.p. administration of vehicle (2% Tween 80–saline), PX-D-P6 and PX-E-P8 (5, 15, 50 mg/kg), at time 0 min, we tested all rats for successful induction of catalepsy. The length of time (descent latency) it persisted in hanging onto the metal bar was measured for a period of up to 300 s (maximum score). After this period, the rat was gently removed from the bar. The high bar test was performed 20 min after the injection of compound. Descent latencies have been presented as median and interquartile ranges. Differences between medians were analyzed by Kruskal-Wallis test, followed by Bonferroni's test.

Setting [4] is: Sprague-Dawley, rat, plasma, ip, n = 6.

T1 sequence (P29274 whole entry): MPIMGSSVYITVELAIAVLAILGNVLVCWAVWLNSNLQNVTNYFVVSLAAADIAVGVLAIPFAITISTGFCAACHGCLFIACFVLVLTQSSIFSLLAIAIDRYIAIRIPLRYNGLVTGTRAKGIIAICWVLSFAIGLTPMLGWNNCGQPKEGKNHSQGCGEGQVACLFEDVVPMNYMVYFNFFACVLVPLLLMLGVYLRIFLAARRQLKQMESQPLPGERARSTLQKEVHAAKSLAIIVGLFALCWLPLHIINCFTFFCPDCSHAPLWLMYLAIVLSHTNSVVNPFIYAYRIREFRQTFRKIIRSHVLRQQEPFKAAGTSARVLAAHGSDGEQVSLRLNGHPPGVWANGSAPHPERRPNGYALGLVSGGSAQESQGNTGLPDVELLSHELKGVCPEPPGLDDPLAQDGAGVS

With `COc1ccc(/C=C/C(=O)Nc2cccc(-c3nc4c(c(=O)n(C)c(=O)n4C)n3C)c2)cc1OC` [PX-E-M10], the melting point is over 300 °C.

The molecule `Cn1c(=O)c2c(nc(-c3cccc(NC(=O)c4cccc(Cl)c4)c3)n2C)n(C)c1=O` [PX-D-M9, 3-Chloro-N-(3-(1,3,7-trimethyl-2,6-dioxo-2,3,6,7-tetrahydro-1H-purin-8-yl)phenyl)benzamide] had a melting point of over 300 °C. Further, the inhibition constant (Ki) at human A2AR is 2.44 ± 0.21 µM. Moreover, on recombinant human MAO-B, the Ki came out at 0.76 ± 0.11 µM.

The molecule `COc1ccc(C(=O)Nc2cccc(-c3nc4c([nH]3)c(=O)n(C)c(=O)n4C)c2)cc1OC` [PX-D-M5, N-(3-(1,3-Dimethyl-2,6-dioxo-2,3,6,7-tetrahydro-1H-purin-8-yl)phenyl)-3,4-dimethoxybenzamide] registered a melting point of over 300 °C. Besides, the inhibition constant Ki at human A2AR stood at 4.99 ± 0.75 µM. Moreover, the Ki on recombinant human MAO-B amounted to 2.36 ± 0.31 µM.

With `COc1ccc(C(=O)Nc2cccc(-c3nc4c(c(=O)n(C)c(=O)n4C)n3C)c2)cc1OC` [PX-D-M10, 3,4-Dimethoxy-N-(3-(1,3,7-trimethyl-2,6-dioxo-2,3,6,7-tetrahydro-1H-purin-8-yl)phenyl)benzamide], the melting point is over 300 °C. In addition, the Ki at human A2AR turned out to be 3.59 ± 0.36 µM. The inhibitory constant (Ki) at recombinant human MAO-B was determined as 2.54 ± 0.31 µM.

With `COc1ccc(C(=O)Nc2ccc(-c3nc4c([nH]3)c(=O)n(C)c(=O)n4C)cc2)cc1OC` [PX-D-P5, N-(4-(1,3-Dimethyl-2,6-dioxo-2,3,6,7-tetrahydro-1H-purin-8-yl)phenyl)-3,4-dimethoxybenzamide], the melting point was over 300 °C. Besides, at human A2AR, the Ki was 4.27 ± 0.51 µM. Also, on recombinant human MAO-B, the inhibition constant (Ki) turned out to be 1.92 ± 0.25 µM.

`Cn1c(=O)c2c(nc(-c3ccc(NC(=O)/C=C/c4cccc(Cl)c4)cc3)n2C)n(C)c1=O` [PX-E-P8, (E)-3-(3-Chlorophenyl)-N-(4-(1,3,7-trimethyl-2,6-dioxo-2,3,6,7-tetrahydro-1H-purin-8-yl)phenyl)acrylamide]: the melting point is over 300 °C. The inhibition constant (Ki) on human A2AR is 0.85 ± 0.11 µM. Further, at recombinant human MAO-B, the Ki amounted to 0.63 ± 0.11 µM. In data set [1] (Sprague-Dawley, rat, plasma, ip, n = 6, read-out: Tmax), the Tmax was determined as 28.8 min. Also, in data set [1] (setting [4]), the AUC(0-t) came to 15600 ± 1540 ng·h/mL, the Cmax came to 1640 ± 436 ng/mL and the half-life was 196 ± 23.4 min. Also, in data set [1] (n = 6), the CL came out at 171.3 ± 36.5 mL/min/kg and the Tmax came out at 27 ± 12.6 min. Moreover, the Kp at 1 h in data set [2] (brain and plasma, read-out: B/P Ratio (brain/plasma ratio)) came to 0.97. In addition, in data set [2] (brain, read-out: Brain concentration), the concentration at 1 h came out at 887 ± 113 ng/g. Also, the concentration at 1 h in data set [2] (plasma, read-out: Plasma concentration) is 915 ± 231 ng/mL. For the same molecule, the Anti-catalepsy ability result in data set [3] (50 mg/kg (high dose)) is on record as “significant anti-catalepsy ability”. Also, in data set [3] (different doses (5, 15 and 50 mg/kg), haloperidol 1.5 mg/kg), the “Effect on haloperidol-induced catalepsy” value was “significant reduction in catalepsy”. Further, the Anti-catalepsy effect result in data set [3] (low dose) was “slight effects”.

On to `Cn1c(=O)c2[nH]c(-c3ccc(NC(=O)c4cccc(Cl)c4)cc3)nc2n(C)c1=O` [PX-D-P4, 3-Chloro-N-(4-(1,3-dimethyl-2,6-dioxo-2,3,6,7-tetrahydro-1H-purin-8-yl)phenyl)benzamide], for which the melting point is over 300 °C. The Ki on human A2AR worked out at 1.52 ± 0.16 µM. In addition, the Ki on recombinant human MAO-B turned out to be 0.25 ± 0.05 µM.

The molecule `COc1ccc(/C=C/C(=O)Nc2cccc(-c3nc4c([nH]3)c(=O)n(C)c(=O)n4C)c2)cc1OC` [PX-E-M5] displayed a melting point of over 300 °C.

`COc1ccc(C(=O)Nc2ccc(-c3nc4c(c(=O)n(C)c(=O)n4C)n3C)cc2)cc1OC` [PX-D-P10, 3,4-Dimethoxy-N-(4-(1,3,7-trimethyl-2,6-dioxo-2,3,6,7-tetrahydro-1H-purin-8-yl)phenyl)benzamide] gave a melting point of over 300 °C. Besides, the inhibition constant (Ki) on human A2AR is 1.34 ± 0.16 µM. The Ki at recombinant human MAO-B turned out to be 2.97 ± 0.37 µM.

For the molecule `Cn1c(=O)c2[nH]c(-c3cccc(NC(=O)c4cccc(Cl)c4)c3)nc2n(C)c1=O` [PX-D-M 4, 3-Chloro-N-(3-(1,3-dimethyl-2,6-dioxo-2,3,6,7-tetrahydro-1H-purin-8-yl)phenyl)benzamide], the melting point was over 300 °C. On human A2AR, the Ki worked out at 3.61 ± 0.41 µM. At recombinant human MAO-B, the Ki was 1.27 ± 0.18 µM.

Molecule `Cn1c(=O)c2[nH]c(-c3ccc(NC(=O)/C=C/c4cccc(Cl)c4)cc3)nc2n(C)c1=O` [PX-E-P4, (E)-3-(3-Chlorophenyl)-N-(4-(1,3-dimethyl-2,6-dioxo-2,3,6,7-tetrahydro-1H-purin-8-yl)phenyl)acrylamide] came in with a melting point of over 300 °C. At human A2AR, the inhibitory constant (Ki) is 6.43 ± 0.98 µM. In addition, the Ki at recombinant human MAO-B was 1.75 ± 0.15 µM.

In the case of `Cn1c(=O)c2c(nc(-c3ccc(NC(=O)c4cccc(Cl)c4)cc3)n2C)n(C)c1=O` [PX-D-P9, 3-Chloro-N-(4-(1,3,7-trimethyl-2,6-dioxo-2,3,6,7-tetrahydro-1H-purin-8-yl)phenyl)benzamide], the melting point is over 300 °C. The Ki at human A2AR worked out at 0.27 ± 0.08 µM. Moreover, the Ki on recombinant human MAO-B came to 1.51 ± 0.19 µM.

For the molecule `CCn1c(=O)c2c(nc(/C=C/c3ccc(OC)c(OC)c3)n2C)n(CC)c1=O` [Istradefylline, reference compound], the Ki on recombinant human MAO-B was over 10 µM.
